Laboratory results published in patent US3943154A, “Acylamides of beta-cyano-ethenesulfonyl substituted aminoarenes” (Sanitized Incorporated, priority 1973, dated 1976).
Values after ≈ are worked out from the molar mass of the structure shown. Like-named read-outs stand apart in the source and are kept apart here.

Columns and labels:
Format in all cases: cell-based
[1] = system: Salmonella typhosa ATCC 6539; experiment: button assay, antibacterial activity; settings: Salmonella enterica, read-out: Antibacterial Activity S.typhosa, minimum inhibitory concentration
Description: (§1) In the test program, the minimum inhibitory concentrations of the respective test compounds against various Gram positive and Gram negative bacteria were determined, employing the "button assay" method. The test organisms utilized were standard cultures of Staphylococcus aureus ATCC 6538 DR, a penicillin resistant Gram positive bacterium; Bacillus subtilis ATCC 9525, a spore-forming Gram positive bacillus; and Salmonella typhosa ATCC 6539, a Gram negative bacterium.
(§2) The highest concentration was ordinarily 1000 ppm (parts per million) [0.1%], and dilutions were made in suitable steps down to 1 ppm. Penicillin test buttons of filter paper having a diameter of 13 mm (socalled "Peniassay" buttons) were added to each solution within a test tube and left submerged for five minutes. They were then removed and left to dry on paper towels under sterile conditions. A laminar flow sterile cabinet equipped with ultraviolet lamps operating under positive air pressure was utilized for this purpose.
(§3) An 18-24 hour old nutrient broth culture (standard 1.5% nutrient agar) prepared in conventional manner from a slant and having passed through at least three consecutive daily transfers was used for inoculation. Melted and cooled sterile agar (45° C) was inoculated with the respective broth cultures by addition of 20 ml broth per liter of agar. The agar was then dispensed into Petri dishes (20 ml per plate) under sterile conditions and allowed to harden.
(§4) The test buttons were placed on the surface of the hardened agar and the plates incubated for 24 hours at 37° C. Where, on inspection, a clear zone of inhibition appeared around the button, inhibition of growth was presumed. Where growth touched the button there was no inhibition. For each of the test compounds, the lowest concentration showing a clear zone is reported as the inhibitory concentration in the following table. […]

[2] = system: Aspergillus niger ATCC 6257; experiment: agar incorporation test, antifungal activity; settings: Aspergillus niger, ATCC6257, 96 h, lowest concentration showing no growth or sporulation, four days at 28° C, read-out: Antifungal Activity A. niger, minimum inhibitory concentration
Description: The anti-fungal activity of the test compounds was determined employing the "agar incorporation" technique, utilizing spores from Aspergillus niger ATCC 6257 as a representative organism. Test solutions were prepared as described above in acetone or dimethylsulfoxide. A source of carbon agar such as Mycophil Agar was used. The agar was melted and cooled and placed in a constant temperature water bath at 45° C + 3° C. About 13-14 ml of the agar was then poured into a sterile Petri dish, the required amount of test solution to give the desired concentration immediately added thereto, and the dish rotated and swirled by hand to obtain a uniform mixture before the agar hardened.
The hardened plates were inoculated with the test organism by fishing spores from a 7-14 day old slant with the inocculating needle and spotting the spores on the plates, usually in several places. The inoculated plates were incubated for four days in an incubator maintained at 28° C +2° C and with a relative humidity of 95%+.
The lowest concentration of each test compound showing no growth or sporulation of the test organism was taken as the minimum inhibitory concentration and is reported in the following tabulation.
(§5) The button assay and agar incorporation tests were also utilized to determine the corresponding inhibitory concentrations of various control materials, viz., the following well known commercial antimicrobials and fungicides: hexachlorophene, tribromosalicylanilide, trichlorocarbanilide,Captan (N-(trichloromethylthio)4cyclohexene-1,2-dicarboximide) and Zineb (zinc ethylenebis[dithiocarbamate]). The minimum inhibitory concentration of each of the various control materials against the respective organisms is indicated in Table IV below: […]

[3] = system: Staphylococcus aureus ATCC 6538 DR; experiment: button assay, antibacterial activity; settings: Staphylococcus aureus, ATCC6538, 24 h, read-out: Antibacterial Activity S.aureus, minimum inhibitory concentration
Description: as §1
as §2, with “In the tests the respective compounds were dissolved in a suitable solvent, usually acetone or dimethylsulfoxide, to give solutions with known concentrations of active material. The highest” for “The highest”
as §3, §4

[4] = system: Bacillus subtilis ATCC 9525; experiment: button assay, antibacterial activity; settings: Bacillus subtilis, ATCC9525, lowest concentration showing a clear zone of inhibition, 24 hours at 37° C, read-out: Antibacterial Activity B.subtilis, minimum inhibitory concentration
Description: as §1
as §2, with “In the tests the respective compounds were dissolved in a suitable solvent, usually acetone or dimethylsulfoxide, to give solutions with known concentrations of active material. The highest” for “The highest”
as §3
The test buttons were placed on the surface of the hardened agar and the plates incubated for 24 hours at 37° C. Where, on inspection, a clear zone of inhibition appeared around the button, inhibition of growth was presumed. Where growth touched the button there was no inhibition. For each of the test compounds, the lowest concentration showing a clear zone is reported as the inhibitory concentration in the following table.
as §5

[5] = button assay, lowest concentration showing a clear zone of inhibition, 24 hours at 37° C

| Compound | MIC ([1]; 24 h) [µg/mL] | MIC [2] [µg/mL] | MIC [3] [µg/mL] | MIC [4] [µg/mL] | MIC [1, 5] [µg/mL] |
| --- | --- | --- | --- | --- | --- |
| N#CC=CS(=O)(=O)c1ccc(NS(=O)(=O)c2ccc(Cl)c([N+](=O)[O-])c2)cc1 [Example 23.2, 3-[4-(4-chloro-3-nitrobenzenesulfonamido)benzenesulfonyl]acrylonitrile] | 100 (≈ 234 µM) | 1000 (≈ 2340 µM) | 100 (≈ 234 µM) | 300 (≈ 701 µM) |  |
| N#CC=CS(=O)(=O)c1ccc(NSC(Cl)(Cl)Cl)cc1 [Example 42, 3-(4-trichlorosulfenamidobenzenesulfonyl)acrylonitrile] | 20 (≈ 55.9 µM) | 1000 (≈ 2800 µM) | 20 (≈ 55.9 µM) | 20 (≈ 55.9 µM) |  |
| Oc1c(Cl)cc(Cl)c(Cl)c1Cc1c(O)c(Cl)cc(Cl)c1Cl [hexachlorophene, reference compound] |  | > 1000 | 5 (≈ 12.3 µM) | 5 (≈ 12.3 µM) | 20 (≈ 49.2 µM) |
| N#CC=CS(=O)(=O)c1ccc(NS(=O)(=O)c2ccc(Oc3ccc(S(=O)(=O)Nc4ccc(S(=O)(=O)C=CC#N)cc4)cc3)cc2)cc1 [Example 34, 4,4'-N,N'-bis[4-(2-cyanoethenesulfonyl)-phenylsulfamoyl]diphenyl ether] | 50 (≈ 70.3 µM) | > 1000 | 100 (≈ 141 µM) | 100 (≈ 141 µM) |  |
| CC(=O)Nc1ccc(S(=O)(=O)C=CC#N)cc1 [3-(4-acetamidobenzenesulfonyl)acrylonitrile, reference compound] | 20 (≈ 79.9 µM) | > 1000 | 50 (≈ 200 µM) | 20 (≈ 79.9 µM) |  |
| N#CC=CS(=O)(=O)c1ccc(NS(=O)(=O)c2ccc3ccccc3c2)cc1 [Example 35, 3-[4-(2-naphthalenesulfonamido)benzenesulfonyl]acrylonitrile] | 5 (≈ 12.5 µM) | > 1000 | 10 (≈ 25.1 µM) | 5 (≈ 12.5 µM) |  |
| COc1ccc(S(=O)(=O)Nc2ccc(S(=O)(=O)C=CC#N)cc2)cc1 [Example 28, 3-[4-(4-methoxybenzenesulfonamido)benzenesulfonyl] acrylonitrile] | 5 (≈ 13.2 µM) | > 1000 | 1 (≈ 2.64 µM) | 10 (≈ 26.4 µM) |  |
| CC(=O)Nc1nnc(S(=O)(=O)Nc2ccc(S(=O)(=O)C=CC#N)cc2)s1 [Example 38, 3-[4-(2-acetamido-1,3,4-thiadiazole-5-sulfonamido)benzenesulfonyl]acrylonitrile] | 100 (≈ 242 µM) | 1000 (≈ 2420 µM) | 500 (≈ 1210 µM) | 50 (≈ 121 µM) |  |
| N#CC=CS(=O)(=O)c1ccc(NP(=O)(OCC(Br)CBr)OCC(Br)CBr)cc1 (stereo not shown) [Example 56, 0,0-bis(2,3-dibromopropyl)-N-4-(2-cyanoethenesulfonyl)phenyl phosphoramide] |  | 100 (≈ 145 µM) | 10 (≈ 14.5 µM) | 10 (≈ 14.5 µM) | 10 (≈ 14.5 µM) |
| N#CC=CS(=O)(=O)c1ccc(N=S=O)cc1 [Example 44, 3-(4-sulfinylimidobenzenesulfonyl)acrylonitrile] | 10 (≈ 39.3 µM) | 300 (≈ 1180 µM) | 20 (≈ 78.6 µM) | 10 (≈ 39.3 µM) |  |
| CN(C)P(=O)(Nc1ccc(S(=O)(=O)C=CC#N)cc1)N(C)C [Example 51, bis-dimethylamido-4-(2-cyanoethenesulfonyl)anilidophosphine oxide] | 10 (≈ 29.2 µM) | 100 (≈ 292 µM) | 20 (≈ 58.4 µM) | 20 (≈ 58.4 µM) |  |
| N#CC=CS(=O)(=O)c1ccc(NS(=O)(=O)c2ccccc2)cc1 [Example 11, 3-(4-benzene-sulfonamidobenzenesulfonyl)acrylonitrile] | 50 (≈ 144 µM) | > 1000 | 20 (≈ 57.4 µM) | 50 (≈ 144 µM) |  |
| CCCCCCCCCCCCc1ccc(S(=O)(=O)Nc2ccc(S(=O)(=O)C=CC#N)cc2)cc1 [Example 17] | 10 (≈ 19.4 µM) | 300 (≈ 581 µM) | 5 (≈ 9.68 µM) | 10 (≈ 19.4 µM) |  |
| CCCCCCCCCCCCCCCCS(=O)(=O)Nc1ccc(S(=O)(=O)C=CC#N)cc1 [Example 4, 3-([…])ACRYLONITRILE] | 50 (≈ 101 µM) | 500 (≈ 1010 µM) | 20 (≈ 40.3 µM) | 20 (≈ 40.3 µM) |  |
| Cc1cc(C)c(S(=O)(=O)Nc2ccc(S(=O)(=O)C=CC#N)cc2)c(C)c1 [Example 18, 3-[4-(2,4,6-trimethylbenzenesulfonamido)benzenesulfonyl]acrylonitrile] | 10 (≈ 25.6 µM) | 100 (≈ 256 µM) | 5 (≈ 12.8 µM) | 10 (≈ 25.6 µM) |  |
| CCCCS(=O)(=O)Nc1ccc(S(=O)(=O)C=CC#N)cc1 [Example 3, 3-(4-butanesulfonamidobenzenesulfonyl)acrylonitrile] | 50 (≈ 152 µM) | > 1000 | 50 (≈ 152 µM) | 20 (≈ 60.9 µM) |  |
| N#CC=CS(=O)(=O)c1ccc(NS(=O)(=O)c2ccc([N+](=O)[O-])cc2)cc1 [Example 22.1, 3-[4-(4-nitrobenzenesulfonamido)benzenesulfonyl]acrylonitrile] | 50 (≈ 127 µM) | > 1000 | 100 (≈ 254 µM) | 50 (≈ 127 µM) |  |
| N#CC=CS(=O)(=O)c1ccc(NS(=O)(=O)c2ccccc2[N+](=O)[O-])cc1 [Example 22.3, 3-[4-(2-nitrobenzenesulfonamido)benzenesulfonyl]acrylonitrile] | 100 (≈ 254 µM) | > 1000 | 10 (≈ 25.4 µM) | ~50 (≈ 127 µM) |  |
| CCS(=O)(=O)Nc1ccc(S(=O)(=O)C=CC#N)cc1 [Example 2, 3-(4-ethanesulfonamidobenzenesulfonyl)acrylonitrile] | 20 (≈ 66.6 µM) | > 1000 | 100 (≈ 333 µM) | 20 (≈ 66.6 µM) |  |
| COc1ccc(S(=O)(=O)Nc2ccc(S(=O)(=O)C=CC#N)cc2)cc1OC [Example 29.1, 3-[4-(3,4-dimethoxybenzenesulfonamido)benzenesulfonyl]acrylonitrile] | 10 (≈ 24.5 µM) | 300 (≈ 734 µM) | 20 (≈ 49 µM) | 10 (≈ 24.5 µM) |  |
| N#CC=CS(=O)(=O)c1ccc(NS(=O)(=O)c2cc(Cl)cc(Cl)c2O)cc1 [Example 24, 3-[4-(3,5-dichloro-2-hydroxybenzenesulfonamido)-benzenesulfonyl]acrylonitrile] | 300 (≈ 692 µM) | 1000 (≈ 2310 µM) | 300 (≈ 692 µM) | 300 (≈ 692 µM) |  |
| Cc1ccc(S(=O)(=O)Nc2ccc(S(=O)(=O)C=CC#N)cc2)cc1 [Example 13, 3-[4-(4-methylbenzenesulfonamido)benzenesulfonyl]acrylonitrile] | 5 (≈ 13.8 µM) | > 1000 | 5 (≈ 13.8 µM) | 5 (≈ 13.8 µM) |  |
| N#CC=CS(=O)(=O)c1ccc(NS(=O)(=O)c2ccc(O)c(C(=O)O)c2)cc1 [Example 25, 3-[4-(4-HYDROXY-3-[…])-BENZENESULFONYL]ACRYLONITRILE] | 50 (≈ 122 µM) | 500 (≈ 1220 µM) | 50 (≈ 122 µM) | 50 (≈ 122 µM) |  |
| COc1ccc(OC)c(S(=O)(=O)Nc2ccc(S(=O)(=O)C=CC#N)cc2)c1 [Example 29.2, 3-[4-(2,5-dimethoxybenzenesulfonamido)benzenesulfonyl]acrylonitrile] | 50 (≈ 122 µM) | 1000 (≈ 2450 µM) | 20 (≈ 49 µM) | 20 (≈ 49 µM) |  |
| Cc1ccc(S(=O)(=O)C=CC#N)cc1NS(=O)(=O)c1ccccc1 [Example 12, 3-(3-benzenesulfonamido-4-methylbenzenesulfonyl)acrylonitrile] | 100 (≈ 276 µM) | > 1000 | 100 (≈ 276 µM) | 100 (≈ 276 µM) |  |
